In data set [1] the test system is PPC-1 prostate cancer cells. Nature of the data set: Alamar Blue proliferation assay, PPC-1. It is filed as cell-based, human. The conditions noted are these: PPC-1 cells, 30 nM, normalized to negative control miRNA (100% proliferation). The source says: The inventors assessed the therapeutic effect of hsa-miR-126 for prostate cancer by using 4 individual human prostate cancer cell lines. To measure cellular proliferation of prostate cancer cells, the following prostate cancer cell lines were used: PPC-1, derived from a bone metastasis; Du145, derived from a brain metastasis; RWPE2, derived from prostate cells immortalized by human papillomavirus 18 and transformed by the K-RAS oncogene; and LNCaP, derived from a lymph node metastasis (Stone et al., 1978; Horoszewicz et al., 1980; Brothman et al., 1991; Pretlow et al., 1993; Bello et al., 1997). PPC-1 and Du145 cells lack expression of the prostate-specific antigen (PSA) and are independent of androgen receptor (AR) signaling. In contrast, RWPE2 and LNCaP cells test positive for PSA and AR. Cells were transfected with synthetic hsa-miR-126 (Pre-miR™-hsa-miR-126, Ambion cat. no. AM 17100) or negative control miRNA (NC; Pre-miR™ microRNA Precursor Molecule-Negative Control #2; Ambion cat. no. AM17111) in a 96-well format using a lipid-based transfection reagent. […] Proliferation was assessed 4-7 days post-transfection using Alamar Blue™ (Invitrogen) following the manufacturer's instructions. […] Fluorescent light units (FLU) were measured after 3 hours, normalized to the control, and plotted as percent change in proliferation. […]
(In general: Resazurin is reduced to fluorescent resorufin, in cell work by metabolically active cells.)

Data set [2] has as its system human PPC-1 prostate cancer xenograft. Nature of the data set: PPC-1 prostate cancer xenograft. The class given is in vivo, NOD/SCID mice. The conditions noted are these: PPC-1 xenograft. As to the method:
Therefore, hsa-miR-126 is a likely to interfere with prostate tumor growth in the animal. To explore this possibility, the therapeutic potential of synthetic hsa-miR-126 miRNA was evaluated in the animal using the PPC-1 human prostate cancer xenograft. As described in Example 8, 5×10^6 PPC-1 cells per animal were electroporated with 1.6 μM synthetic hsa-miR-126 or negative control miRNA (Pre-miR™-hsa-miR-126, Ambion cat. no. AM17100; NC, Pre-miR™ microRNA Precursor Molecule-Negative Control #2, Ambion cat. no. AM17111), mixed with BD Matrigel™, (BD Biosciences; San Jose, Calif., USA; cat. no. 356237) in a 1:1 ratio and implanted subcutaneously into the lower back of NOD/SCID mice (Charles River Laboratories, Inc.; Wilmington, Mass., USA). A group of 7 mice was injected with hsa-miR-126 treated PPC-1 cells, and a group of 7 animals was injected with PPC-1 cells treated with negative control miRNA. To maintain steady levels of miRNA, 6.25 μg of each hsa-miR-126 or negative control miRNA conjugated with the lipid-based siPORT™ amine delivery agent (Ambion, Austin, Tex.; cat. no. AM4502) were repeatedly administered on days 7, 13 and 20 via intra-tumoral injections. Given an average mouse weight of 20 g, this dose equals 0.3125 mg/kg. Tumor growth was monitored by taking caliper measurements every 1-2 days for 22 days. Tumor volumes were calculated using the formula, Volume=length×width×width/2, in which the length is greater than the width, and plotted over time (FIG. 13). Standard deviations and data points with p values <0.01, indicating statistical significance, are shown in graph.

The test system of data set [3] is human A549 lung cancer xenografts. Nature of the data set: A549 lung cancer xenograft, cells electroporated before implantation. The class given is in vivo, NOD/SCID mice. On the procedure:
The inventors assessed the growth-inhibitory activity of hsa-miR-126 in human lung cancer xenografts grown in immunodeficient mice. Hsa-miR-126 was delivered into A549 and H460 lung cancer cells via electroporation using the Gene Pulser Xcell™ (BioRad) with the following settings: 15×10^6 cells with 5 μg miRNA in 200 μl OptiMEM, square wave pulse at 150 V for 10 ms. Electroporated cells (5×10^6) were mixed with BD Matrigel™, (BD Biosciences; San Jose, Calif., USA; cat. no. 356237) in a 1:1 ratio and injected subcutaneously into the flank of NOD/SCID mice (Charles River Laboratories, Inc.; Wilmington, Mass., USA). As a negative control, A549 and H460 cells were electroporated with negative control (NC) miRNA (Pre-miR™ microRNA Precursor Molecule-Negative Control #2; Ambion cat. no. AM17111) as described above. To assess the anti-oncogenic activity of hsa-miR-126, six animals were injected with A459 cells and six animals were injected with H460 cells. NC miRNA-treated cells were injected into the opposite flank of the same animal to control for animal-to-animal variability. Once tumors reached a measurable size (A549 at 7 days post injection; H460 at 5 days post injection), the length and width of tumors were determined every day for up to 11 days. Tumor volumes were calculated using the formula, Volume=length X width X width/2, in which the length is greater than the width. For animals carrying A549 xenografts, tumor volumes derived from NC-treated cells and hsa-miR-126-treated cells were averaged and plotted over time (FIG. 4). The p value, indicating statistical significance, is shown for values obtained on day 18 (p=0.0125).

In the case of “hsa-miR-126 (UCGUACCGUGAGUAAUAAUGC; synthetic pre-miR form, further chemistry not given here) [Synthetic hsa-miR-126 (Pre-miR™-hsa-miR-126, Ambion cat. no. AM17100)]”, in data set [1], the “% proliferation” value is on record as 71.89%. Moreover, the “average volume of tumors” value in data set [2] (day 22, 6.25 μg intratumoral days 7, 13, 20) is 157 mm^3. In data set [2] (in response to treatments on days 7 and 13), the “tumor volumes after treatment” value is reported as “approximately 130 mm^3”. The tumor growth result in data set [2] (repeated dosing) is recorded as “blocked tumor growth”. Besides, the “tumor size relative to control tumors” value in data set [3] (A549, day 18, n=6) is reported as “all animals showed smaller tumors”. For the same substance, the “tumor growth in vivo” value in data set [3] (A549 cells electroporated with miRNA before s.c. implantation) was “inhibited tumor growth in vivo”. Also, in data set [3] (A549 tumors), the “Ki-67 antigen in tumors (histology)” value was “diminished levels of the Ki-67 antigen”.

(Values after patent US20090131354A1, “miR-126 REGULATED GENES AND PATHWAYS AS TARGETS FOR THERAPEUTIC INTERVENTION” (priority 2007, published 2009).)
